Results published in paper PMC7206119, “RIP1 inhibition blocks inflammatory diseases but not tumor growth or metastases” (Cell Death and Differentiation, 2019).

How the values were obtained:
Assay in all cases: biochemical
[1] = target: DYRK1B (Homo sapiens, UniProt Q9Y463); set-up: DiscoverX kinase panel, active-site competition binding (KINOMEscan type), percent of control at one concentration; details: competition binding, percent of control
Description: (§1) To investigate the potential therapeutic benefit of inhibiting RIP1, we developed GNE684 or (S)-N-((S)-7-methoxy-1-methyl-2-oxo-2,3,4,5-tetrahydro-1H-pyrido[3,4-b]azepin-3-yl)-5-phenyl-6,7-dihydro-5H-pyrrolo[1,2-b][1,2,4]triazole-2-carboxamide with cross-species potency against RIP1, exquisite kinase selectivity, and favorable pharmacological properties (Fig. 1a–h, S1, Tables S1 and S2, SI file 1). […] (Fig. 1b, S1, and Table S1). […] GNE684 inhibited human RIP1 potently in vitro, and mouse and rat RIP1 with slightly less potency (Fig. 1d). Accordingly, it inhibited TNF-induced necroptosis in human HT-29, mouse L929, or rat H9c2 cells (Fig. 1e). The cellular potency of GNE684 was confirmed in a human whole blood assay using TBZ ([compound left out], IAP antagonist BV6, and pan-caspase inhibitor zVAD) or LZ (LPS plus zVAD) to trigger necroptosis and the release of IL-1α and IL-1β (Fig. 1f).

[2] = target: LTK (Homo sapiens, UniProt P29376); set-up: DiscoverX kinase panel, active-site competition binding (KINOMEscan type), percent of control at one concentration; details: competition binding, percent of control
Description: as §1

[3] = target: STK33 (Homo sapiens, UniProt Q9BYT3); set-up: DiscoverX kinase panel, active-site competition binding (KINOMEscan type), percent of control at one concentration; details: competition binding, percent of control
Description: as §1

[4] = target: AKT1 (Homo sapiens, UniProt P31749); set-up: Thermo Fisher SelectScreen kinase panel: Z'-LYTE and Adapta activity, LanthaScreen binding
Method: (§2) 5 88 GNE684 was tested in Thermo Fisher Scientific SelectScreen assay (Madison, WI) 89 against 221 representative kinases at a concentration of 10 µM, which is 476-fold greater than the Ki app 90 for GNE684 against human RIP1 in the RIP1 enzyme 91 assay. The kinase assays were carried out using Z'-LYTE and Adapta activity and 92 LanthaScreen binding assays (Thermo Fisher Scientific, Madison WI) following 93 protocols developed and performed by Thermo Fisher Scientific 94 (https://www.thermofisher.com/us/en/home/products-and-services/services/custom-95 services/screening-and-profiling-services/selectscreen-profiling-service/selectscreen-96 kinase-profiling-service.html). 97 GNE684 was also tested against 468 kinases in the KINOMEscan scanMAX kinase 98 binding assay panel at a concentration of 10 µM following protocols developed and 99 performed by DiscoverX (http://www.discoverx.com/kinase_profiling).

[5] = target: T1, CK1_alpha1 (Homo sapiens, UniProt P48729); set-up: Thermo Fisher SelectScreen kinase panel: Z'-LYTE and Adapta activity, LanthaScreen binding
T1 construct: gene CSNK1A1
Method: as §2

[6] = target: T2, CK1_gamma2 (Homo sapiens, UniProt P78368); set-up: Thermo Fisher SelectScreen kinase panel: Z'-LYTE and Adapta activity, LanthaScreen binding
T2 construct: gene CSNK1G2
Method: as §2

[7] = target: CLK3 (Homo sapiens, UniProt P49761); set-up: Thermo Fisher SelectScreen kinase panel: Z'-LYTE and Adapta activity, LanthaScreen binding
Method: as §2

[8] = target: T3, CaMKI (Homo sapiens, UniProt Q14012); set-up: Thermo Fisher SelectScreen kinase panel: Z'-LYTE and Adapta activity, LanthaScreen binding
T3 construct: gene CAMK1
Method: as §2

[9] = target: FLT1 (Homo sapiens, UniProt P17948); set-up: Thermo Fisher SelectScreen kinase panel: Z'-LYTE and Adapta activity, LanthaScreen binding
Method: as §2

[10] = target: FLT4 (Homo sapiens, UniProt P35916); set-up: Thermo Fisher SelectScreen kinase panel: Z'-LYTE and Adapta activity, LanthaScreen binding
Method: as §2

[11] = target: T4, IKK-epsilon (Homo sapiens, UniProt Q14164); set-up: Thermo Fisher SelectScreen kinase panel: Z'-LYTE and Adapta activity, LanthaScreen binding
T4 construct: gene IKBKE
Method: as §2

[12] = target: KIT (Homo sapiens, UniProt P10721); set-up: Thermo Fisher SelectScreen kinase panel: Z'-LYTE and Adapta activity, LanthaScreen binding
Method: as §2

[13] = target: MARK3 (Homo sapiens, UniProt P27448); set-up: Thermo Fisher SelectScreen kinase panel: Z'-LYTE and Adapta activity, LanthaScreen binding
Method: as §2

[14] = target: T5, MYLK(smMLCK) (Homo sapiens, UniProt Q15746); set-up: Thermo Fisher SelectScreen kinase panel: Z'-LYTE and Adapta activity, LanthaScreen binding
T5 construct: smooth muscle MLCK
Method: as §2

[15] = target: NEK1 (Homo sapiens, UniProt Q96PY6); set-up: Thermo Fisher SelectScreen kinase panel: Z'-LYTE and Adapta activity, LanthaScreen binding
Method: as §2

[16] = target: T6, RSK1 (Homo sapiens, UniProt Q15418); set-up: Thermo Fisher SelectScreen kinase panel: Z'-LYTE and Adapta activity, LanthaScreen binding
T6 construct: gene RPS6KA1
Method: as §2

[17] = target: TEC (Homo sapiens, UniProt P42680); set-up: Thermo Fisher SelectScreen kinase panel: Z'-LYTE and Adapta activity, LanthaScreen binding
Method: as §2

[18] = target: T7, TRKA (Homo sapiens, UniProt P04629); set-up: Thermo Fisher SelectScreen kinase panel: Z'-LYTE and Adapta activity, LanthaScreen binding
T7 construct: gene NTRK1
Method: as §2

[19] = target: ZAP70 (Homo sapiens, UniProt P43403); set-up: gene ZAP70; Thermo Fisher SelectScreen kinase panel: Z'-LYTE and Adapta activity, LanthaScreen binding
Method: as §2

TEC, sequence (P42680 whole entry): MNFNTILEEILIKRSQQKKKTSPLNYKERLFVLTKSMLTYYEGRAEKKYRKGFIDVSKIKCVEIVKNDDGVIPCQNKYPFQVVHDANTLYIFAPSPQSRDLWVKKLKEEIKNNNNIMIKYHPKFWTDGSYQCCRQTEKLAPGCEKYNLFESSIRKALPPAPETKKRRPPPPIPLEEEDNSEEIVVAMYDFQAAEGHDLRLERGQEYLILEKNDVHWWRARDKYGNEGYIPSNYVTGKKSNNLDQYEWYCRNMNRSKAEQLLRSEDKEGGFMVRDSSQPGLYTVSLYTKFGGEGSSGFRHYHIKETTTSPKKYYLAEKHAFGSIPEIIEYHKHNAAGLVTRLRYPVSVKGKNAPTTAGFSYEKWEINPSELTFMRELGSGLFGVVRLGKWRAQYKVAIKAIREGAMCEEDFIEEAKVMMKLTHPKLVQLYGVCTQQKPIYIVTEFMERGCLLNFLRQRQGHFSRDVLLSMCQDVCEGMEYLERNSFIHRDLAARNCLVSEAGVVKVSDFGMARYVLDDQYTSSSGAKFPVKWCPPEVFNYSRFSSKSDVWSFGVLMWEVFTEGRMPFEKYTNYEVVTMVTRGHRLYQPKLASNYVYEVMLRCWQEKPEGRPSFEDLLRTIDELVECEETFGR
T3 sequence (Q14012 whole entry): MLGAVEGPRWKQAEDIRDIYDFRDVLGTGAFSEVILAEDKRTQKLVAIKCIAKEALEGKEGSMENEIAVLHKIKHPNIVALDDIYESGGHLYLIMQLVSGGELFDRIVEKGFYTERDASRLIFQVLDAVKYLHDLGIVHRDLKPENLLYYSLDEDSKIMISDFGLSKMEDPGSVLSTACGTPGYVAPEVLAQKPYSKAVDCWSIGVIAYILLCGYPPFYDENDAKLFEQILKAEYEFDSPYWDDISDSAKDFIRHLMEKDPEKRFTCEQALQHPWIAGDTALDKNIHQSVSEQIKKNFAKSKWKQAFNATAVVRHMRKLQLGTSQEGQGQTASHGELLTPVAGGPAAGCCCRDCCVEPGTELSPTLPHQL
FLT1, sequence (P17948 whole entry): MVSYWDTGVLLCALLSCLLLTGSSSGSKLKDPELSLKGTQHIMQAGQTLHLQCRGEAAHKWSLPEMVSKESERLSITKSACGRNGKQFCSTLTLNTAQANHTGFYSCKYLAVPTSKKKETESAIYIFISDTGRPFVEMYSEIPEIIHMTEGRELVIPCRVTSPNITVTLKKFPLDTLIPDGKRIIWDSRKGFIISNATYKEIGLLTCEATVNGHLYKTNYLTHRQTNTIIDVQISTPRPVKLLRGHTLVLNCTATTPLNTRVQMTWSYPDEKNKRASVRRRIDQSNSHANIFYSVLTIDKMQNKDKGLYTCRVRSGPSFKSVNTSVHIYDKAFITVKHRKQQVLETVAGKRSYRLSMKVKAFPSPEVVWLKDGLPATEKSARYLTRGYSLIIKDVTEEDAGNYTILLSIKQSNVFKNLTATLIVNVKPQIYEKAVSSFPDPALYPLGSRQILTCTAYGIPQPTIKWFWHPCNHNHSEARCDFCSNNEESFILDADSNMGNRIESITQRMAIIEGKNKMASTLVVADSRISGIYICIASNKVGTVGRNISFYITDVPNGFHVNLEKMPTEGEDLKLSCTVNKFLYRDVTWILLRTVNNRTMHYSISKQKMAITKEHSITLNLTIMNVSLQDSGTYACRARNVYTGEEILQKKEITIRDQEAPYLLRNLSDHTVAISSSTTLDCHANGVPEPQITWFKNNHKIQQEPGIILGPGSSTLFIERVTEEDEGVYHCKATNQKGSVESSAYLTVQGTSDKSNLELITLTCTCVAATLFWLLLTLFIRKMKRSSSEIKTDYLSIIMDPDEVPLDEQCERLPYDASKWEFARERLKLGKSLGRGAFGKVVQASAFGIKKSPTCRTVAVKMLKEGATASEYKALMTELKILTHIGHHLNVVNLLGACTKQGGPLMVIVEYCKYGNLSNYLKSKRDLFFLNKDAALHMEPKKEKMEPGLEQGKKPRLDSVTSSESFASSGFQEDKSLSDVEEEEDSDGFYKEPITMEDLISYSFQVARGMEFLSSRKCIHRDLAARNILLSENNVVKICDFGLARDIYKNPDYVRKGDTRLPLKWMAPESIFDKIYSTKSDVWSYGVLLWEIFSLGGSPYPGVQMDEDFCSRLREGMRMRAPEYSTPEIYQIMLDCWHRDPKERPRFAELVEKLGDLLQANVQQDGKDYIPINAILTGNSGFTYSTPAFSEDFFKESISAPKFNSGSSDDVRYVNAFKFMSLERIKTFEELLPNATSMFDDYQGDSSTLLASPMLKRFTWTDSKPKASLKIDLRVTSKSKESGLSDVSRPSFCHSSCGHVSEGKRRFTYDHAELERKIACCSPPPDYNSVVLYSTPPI
NEK1, sequence (Q96PY6 whole entry): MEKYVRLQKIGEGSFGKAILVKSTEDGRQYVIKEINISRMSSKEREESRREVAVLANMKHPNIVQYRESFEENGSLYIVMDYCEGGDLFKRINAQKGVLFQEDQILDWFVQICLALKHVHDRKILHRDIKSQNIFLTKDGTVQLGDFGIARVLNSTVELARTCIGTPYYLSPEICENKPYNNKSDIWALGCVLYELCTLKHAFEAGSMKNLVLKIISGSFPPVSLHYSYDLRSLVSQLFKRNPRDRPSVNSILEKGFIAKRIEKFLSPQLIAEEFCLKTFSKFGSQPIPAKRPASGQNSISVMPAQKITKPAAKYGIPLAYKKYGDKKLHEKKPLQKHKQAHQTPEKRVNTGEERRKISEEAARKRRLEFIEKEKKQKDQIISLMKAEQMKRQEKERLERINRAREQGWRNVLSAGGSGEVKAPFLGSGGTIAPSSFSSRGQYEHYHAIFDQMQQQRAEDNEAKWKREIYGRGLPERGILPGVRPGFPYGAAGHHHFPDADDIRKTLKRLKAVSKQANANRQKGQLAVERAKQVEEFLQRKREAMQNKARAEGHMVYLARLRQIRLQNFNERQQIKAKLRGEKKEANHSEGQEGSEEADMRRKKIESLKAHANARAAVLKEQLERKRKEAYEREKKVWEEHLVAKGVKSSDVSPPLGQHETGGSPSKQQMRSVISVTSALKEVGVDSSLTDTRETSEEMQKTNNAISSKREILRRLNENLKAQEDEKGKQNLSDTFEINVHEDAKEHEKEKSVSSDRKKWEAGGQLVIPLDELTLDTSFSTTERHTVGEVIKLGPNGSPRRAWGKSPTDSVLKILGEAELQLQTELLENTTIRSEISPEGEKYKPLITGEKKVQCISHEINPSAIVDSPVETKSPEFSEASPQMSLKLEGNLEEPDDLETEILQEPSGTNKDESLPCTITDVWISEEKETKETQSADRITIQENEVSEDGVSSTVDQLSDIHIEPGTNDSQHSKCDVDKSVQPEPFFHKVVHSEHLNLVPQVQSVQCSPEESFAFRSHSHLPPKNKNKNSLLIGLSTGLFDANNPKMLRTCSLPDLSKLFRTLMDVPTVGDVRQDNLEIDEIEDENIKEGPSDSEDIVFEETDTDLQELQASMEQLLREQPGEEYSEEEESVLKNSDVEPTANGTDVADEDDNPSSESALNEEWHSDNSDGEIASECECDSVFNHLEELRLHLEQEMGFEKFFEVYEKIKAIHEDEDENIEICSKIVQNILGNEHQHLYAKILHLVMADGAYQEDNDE
T1 sequence (P48729 whole entry): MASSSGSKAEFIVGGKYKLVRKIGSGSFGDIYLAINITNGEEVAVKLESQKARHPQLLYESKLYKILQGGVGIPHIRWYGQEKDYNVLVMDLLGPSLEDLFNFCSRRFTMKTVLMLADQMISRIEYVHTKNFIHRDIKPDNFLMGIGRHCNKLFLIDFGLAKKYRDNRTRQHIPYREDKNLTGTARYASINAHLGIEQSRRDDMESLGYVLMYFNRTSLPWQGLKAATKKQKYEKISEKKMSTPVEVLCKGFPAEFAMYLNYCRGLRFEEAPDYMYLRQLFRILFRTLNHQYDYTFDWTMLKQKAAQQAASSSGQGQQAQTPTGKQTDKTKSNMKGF
STK33, sequence (Q9BYT3 whole entry): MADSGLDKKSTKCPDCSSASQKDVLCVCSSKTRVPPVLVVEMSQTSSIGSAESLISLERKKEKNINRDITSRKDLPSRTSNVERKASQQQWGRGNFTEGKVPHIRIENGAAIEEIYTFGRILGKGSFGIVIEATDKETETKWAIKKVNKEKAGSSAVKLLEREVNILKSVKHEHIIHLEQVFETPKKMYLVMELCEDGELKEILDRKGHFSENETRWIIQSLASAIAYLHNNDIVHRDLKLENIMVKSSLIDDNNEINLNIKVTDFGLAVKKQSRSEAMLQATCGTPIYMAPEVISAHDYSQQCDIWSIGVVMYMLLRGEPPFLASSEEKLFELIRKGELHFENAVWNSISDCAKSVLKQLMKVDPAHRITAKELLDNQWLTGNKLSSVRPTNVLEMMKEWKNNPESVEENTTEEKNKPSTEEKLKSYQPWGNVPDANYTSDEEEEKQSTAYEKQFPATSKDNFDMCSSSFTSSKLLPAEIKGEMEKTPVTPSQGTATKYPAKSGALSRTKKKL
CLK3, sequence (P49761 whole entry): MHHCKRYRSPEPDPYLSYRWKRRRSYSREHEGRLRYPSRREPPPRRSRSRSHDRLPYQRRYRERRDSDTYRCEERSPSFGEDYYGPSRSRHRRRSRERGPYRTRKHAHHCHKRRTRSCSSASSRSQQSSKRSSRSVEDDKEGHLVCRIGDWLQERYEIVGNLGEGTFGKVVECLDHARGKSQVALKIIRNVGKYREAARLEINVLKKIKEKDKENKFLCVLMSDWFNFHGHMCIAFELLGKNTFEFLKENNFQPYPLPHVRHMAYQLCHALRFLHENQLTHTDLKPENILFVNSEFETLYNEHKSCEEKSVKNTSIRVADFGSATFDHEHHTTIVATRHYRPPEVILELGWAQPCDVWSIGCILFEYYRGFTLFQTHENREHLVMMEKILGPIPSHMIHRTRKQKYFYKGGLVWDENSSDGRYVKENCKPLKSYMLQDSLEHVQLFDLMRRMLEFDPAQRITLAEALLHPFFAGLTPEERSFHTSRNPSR

COc1cc2c(cn1)N(C)C(=O)[C@@H](NC(=O)c1nc3n(n1)[C@H](c1ccccc1)CC3)CC2 [GNE684, (S)-N-((S)-7-methoxy-1-methyl-2-oxo-2,3,4,5-tetrahydro-1H-pyrido[3,4-b]azepin-3-yl)-5-phenyl-6,7-dihydro-5H-pyrrolo[1,2-b][1,2,4]triazole-2-carboxamide]
remaining binding at 10 µM [1]: 54% | remaining binding at 10 µM [2]: 93% | remaining binding at 10 µM [3]: 86% | inhibition at 10 µM [4]: 2.5% | inhibition at 10 µM [5]: 3% | inhibition at 10 µM [6]: 2% | inhibition at 10 µM [7]: 1.5% | inhibition at 10 µM [8]: -5.5% | inhibition at 10 µM [9]: 3.5% | inhibition at 10 µM [10]: 14% | inhibition at 10 µM [11]: 3% | inhibition at 10 µM [12]: 3% | inhibition at 10 µM [13]: -2.5% | inhibition at 10 µM [14]: -5% | inhibition at 10 µM [15]: 7.5% | inhibition at 10 µM [16]: 4.5% | inhibition at 10 µM [17]: -1% | inhibition at 10 µM [18]: -3% | inhibition at 10 µM [19]: 1%
